Values of other authors in patent publication EP0602619A1, “Controlled-release pharmaceutical compositions containing nicergoline” (INVERNI DELLA BEFFA FARMACEUTICI S.r.l., priority 1992, dated 1994).

period of excretion of the administered dose (humans, urine and feces): 3 to 4 days
half-life (in vivo): very short
Compound: CO[C@]12C[C@@H](COC(=O)c3cncc(Br)c3)CN(C)[C@@H]1Cc1cn(C)c3cccc2c13 [Nicergoline, 8-β-1,6-dimethyl-[(5-bromonicotinoyloxy)methyl]-10α-methoxyergoline]
